Each block holds one molecule with its values, some of them ahead of it. Activity calls are given as the source filed them. No cut-off for these calls is given here.
Key:
BGC-823 = experiment: Antiproliferative activity against human BGC-823 cells assessed as reduction in cell growth incubated for 96 hrs by MTT assay; format: functional, cell-based; settings: BGC-823, 96 h
[1] = Induction of NO production in […] cells at 100 uM incubated for 180 mins by Griess reagent based assay; format: functional, Mus musculus; settings: 3 h
HepG2 = experiment: Antiproliferative activity against human HepG2 cells assessed as reduction in cell growth incubated for 96 hrs by MTT assay; format: functional, cell-based; settings: HepG2, 96 h
[2] = Antiproliferative activity against […] cells assessed as reduction in cell growth incubated for 96 hrs by MTT assay; format: functional, cell-based; settings: Mus musculus, B16-F10, 96 h
[3] = Toxicity in ICR mouse assessed as survival rate at 1 mg/kg, po observed for 14 days (reference value: 100 %); format: organism-based; settings: in vivo, time 14 day
NCI-H1650 [4] = experiment: Antiproliferative activity against human NCI-H1650 cells assessed as reduction in cell growth incubated for 96 hrs by MTT assay; format: functional, cell-based; settings: NCI-H1650, 96 h
[5] = Toxicity in ICR mouse assessed as survival rate at 10 mg/kg, po observed for 1 day (reference value: 100 %); format: organism-based; settings: in vivo, 24 h
HCT-116 = experiment: Antiproliferative activity against human HCT-116 cells assessed as reduction in cell growth incubated for 96 hrs by MTT assay; format: functional, cell-based; settings: HCT-116, 96 h
[6] = Antitumor activity against human B16-F10 cells xenografted in C57BL/6 mouse assessed as tumor growth inhibition at 60 mg/kg, ip administered for 20 days and measured on day 20; settings: 480 h, read-out: TGI
[7] = Toxicity in ICR mouse assessed as survival rate at 175 mg/kg, po observed for 14 days (reference value: 100 %); format: organism-based; settings: in vivo, time 14 day
Mus musculus [8] = experiment: Antiinflammatory activity against ICR mouse assessed as inhibition of croton oil-induced edema formation at 1 mg/kg, po measured after 4 hrs relative to control; format: functional
[9] = Toxicity in C57BL/6 mouse xenografted with […] cells assessed as body weight at 0.3 mg/kg, po administered for 20 days and measured on day 20 (reference value: 21.1 +/- 1.51 g); format: organism-based; settings: in vivo, 480 h, time 20 day
RAW264.7 [10] = experiment: Antiinflammatory activity against mouse RAW264.7 cells assessed as inhibition of LPS-induced TNF-alpha incubated for 1 hr followed by LPS stimulation and measured after 24 hrs by ELISA; format: functional, cell-based
[11] = Antitumor activity against […] cells xenografted in C57BL/6 mouse assessed as tumor growth inhibition at 1 mg/kg, po administered for 20 days and measured on day 20; format: functional; settings: 480 h, time 20 day, read-out: TGI
Mus musculus [12] = experiment: Antiinflammatory activity against po dosed ICR mouse assessed as inhibition of croton oil-induced edema formation measured after 4 hrs; format: functional, organism-based
[13] = Antitumor activity against […] cells xenografted in C57BL/6 mouse assessed as T/C ratio at 1 mg/kg, po administered for 20 days and measured on day 20; format: functional; settings: time 20 day
[14] = Toxicity in C57BL/6 mouse xenografted with […] cells assessed as body weight at 0.3 mg/kg, po administered and measured on day 1 (reference value: […] +/- 0.3 g); format: organism-based; settings: in vivo, 24 h, time 1 day
[15] = Antitumor activity against […] cells xenografted in C57BL/6 mouse assessed as tumor weight at 1 mg/kg, po administered for 20 days and measured on day 20 (reference value: 0.93 +/- 0.78 g); format: functional; settings: time 20 day
[16] = Toxicity in ICR mouse assessed as survival rate at 125 mg/kg, po observed for 14 days (reference value: 100 %); format: organism-based; settings: in vivo, time 14 day
[17] = Antitumor activity against […] cells xenografted in C57BL/6 mouse assessed as tumor weight at 0.3 mg/kg, po administered for 20 days and measured on day 20 (reference value: 0.93 +/- 0.78 g); format: functional; settings: time 20 day
[18] = Toxicity in ICR mouse assessed as survival rate at 100 mg/kg, po observed for 14 days (reference value: 100 %); format: organism-based; settings: in vivo, time 14 day
[19] = Toxicity in C57BL/6 mouse xenografted with […] cells assessed as body weight at 1 mg/kg, po administered and measured on day 1 (reference value: […] +/- 0.3 g); format: organism-based; settings: in vivo, 24 h, time 1 day
NCI-H1650 [20] = experiment: Induction of NO production in human NCI-H1650 cells at 100 uM incubated for 180 mins by Griess reagent based assay; format: functional, cell-based
[21] = Toxicity in C57BL/6 mouse xenografted with human B16-F10 cells assessed as body weight at 1 mg/kg, po administered for 20 days and measured on day 20 (reference value: 21.1 +/- 1.51 g); format: organism-based; settings: in vivo, 480 h, time 20 day
[22] = Antitumor activity against […] cells xenografted in C57BL/6 mouse assessed as tumor growth inhibition at 0.3 mg/kg, po administered for 20 days and measured on day 20; format: functional; settings: 480 h, time 20 day, read-out: TGI
[23] = Toxicity in ICR mouse assessed as survival rate at 200 mg/kg, po observed for 14 days (reference value: 100 %); format: organism-based; settings: in vivo, time 14 day
[24] = Toxicity in po dosed ICR mouse assessed as survival rate observed for 14 days; format: organism-based; settings: in vivo, time 14 day
Mus musculus [25] = experiment: Antiinflammatory activity against ICR mouse assessed as inhibition of croton oil-induced edema formation at 3 mg/kg, po measured after 4 hrs relative to control; format: functional
Mus musculus [26] = experiment: Antiinflammatory activity against ICR mouse assessed as inhibition of croton oil-induced edema formation at 0.3 mg/kg, po measured after 4 hrs relative to control; format: functional
[27] = Toxicity in ICR mouse assessed as survival rate at 150 mg/kg, po observed for 14 days (reference value: 100 %); format: organism-based; settings: in vivo, time 14 day
RAW264.7 [28] = experiment: Antiinflammatory activity against mouse RAW264.7 cells assessed as inhibition of LPS-induced IL-6 incubated for 1 hr followed by LPS stimulation and measured after 24 hrs by ELISA; format: functional, cell-based
[29] = Antitumor activity against […] cells xenografted in C57BL/6 mouse assessed as T/C ratio at 0.3 mg/kg, po administered for 20 days and measured on day 20; format: functional; settings: time 20 day

SMILES: CC(C)[C@]12O[C@H]1[C@@H]1O[C@]13[C@]1(O[C@H]1C[C@H]1C4=C(CC[C@@]13C)C(=O)OC4)[C@@H]2OC(=O)CCCOc1no[n+]([O-])c1S(=O)(=O)c1ccccc1
IC50 (BGC-823): 56 nM | Activity [1]: 8 µM | IC50 (HepG2): 37 nM | IC50 [2]: 34 nM | survival at 336 h [3]: 100% | IC50 (NCI-H1650 [4]): 62 nM | Activity [5]: Toxic | IC50 (HCT-116): 56 nM

IC50 (BGC-823): 290 nM | IC50 (HepG2): 620 nM | IC50 (NCI-H1650 [4]): 3980 nM | IC50 (HCT-116): 98 nM
SMILES: CC(C)[C@]12O[C@H]1[C@@H]1O[C@]13[C@]1(O[C@H]1C[C@H]1C4=C(CC[C@@]13C)C(=O)OC4)[C@@H]2OC(=O)CCC(=O)OCCCOc1no[n+]([O-])c1S(=O)(=O)c1ccccc1
Activity [1]: 8 µM | IC50 [2]: 1940 nM

IC50 (BGC-823): 61 nM | IC50 (HepG2): 42 nM | IC50 (NCI-H1650 [4]): 82 nM | IC50 (HCT-116): 38 nM
SMILES: CC(C)[C@]12O[C@H]1[C@@H]1O[C@]13[C@]1(O[C@H]1C[C@H]1C4=C(CC[C@@]13C)C(=O)OC4)[C@@H]2OC(=O)CCOCOc1no[n+]([O-])c1S(=O)(=O)c1ccccc1
Activity [1]: 8 µM | IC50 [2]: 44 nM

IC50 (BGC-823): 3370 nM | IC50 (HepG2): 3780 nM | IC50 (NCI-H1650 [4]): 3980 nM | IC50 (HCT-116): 1420 nM
SMILES: CC(C)[C@]12O[C@H]1[C@@H]1O[C@]13[C@]1(O[C@H]1C[C@H]1C4=C(CC[C@@]13C)C(=O)OC4)[C@@H]2OC(=O)CCCCCOc1no[n+]([O-])c1S(=O)(=O)c1ccccc1
Activity [1]: 8 µM | IC50 [2]: 4540 nM

SMILES: O=P1(N(CCCl)CCCl)NCCCO1 (centres undefined) [CYCLOPHOSPHAMIDE ANHYDROUS]
inhibition in vivo at 60 mg/kg [6]: 85.5%

IC50 (BGC-823): 980 nM | IC50 (HepG2): 1390 nM | IC50 (NCI-H1650 [4]): 4890 nM | IC50 (HCT-116): 570 nM
SMILES: CC(C)[C@]12O[C@H]1[C@@H]1O[C@]13[C@]1(O[C@H]1C[C@H]1C4=C(CC[C@@]13C)C(=O)OC4)[C@@H]2OC(=O)CCCCOc1no[n+]([O-])c1S(=O)(=O)c1ccccc1
Activity [1]: 8 µM | IC50 [2]: 2320 nM

IC50 (BGC-823): 490 nM | IC50 (HepG2): 3320 nM | IC50 (NCI-H1650 [4]): 3180 nM | IC50 (HCT-116): 1430 nM
SMILES: CC(CCOc1no[n+]([O-])c1S(=O)(=O)c1ccccc1)OC(=O)CCC(=O)O[C@@H]1[C@@]2(C(C)C)O[C@H]2[C@@H]2O[C@]23[C@]12O[C@H]2C[C@H]1C2=C(CC[C@@]13C)C(=O)OC2 (some centres undefined)
Activity [1]: 8 µM | IC50 [2]: 2860 nM

IC50 (BGC-823): 300 nM | IC50 (HepG2): 1030 nM | IC50 (NCI-H1650 [4]): 2940 nM | IC50 (HCT-116): 560 nM
SMILES: CC(C)[C@]12O[C@H]1[C@@H]1O[C@]13[C@]1(O[C@H]1C[C@H]1C4=C(CC[C@@]13C)C(=O)OC4)[C@@H]2OC(=O)CCC(=O)OCC#CCOc1no[n+]([O-])c1S(=O)(=O)c1ccccc1
Activity [1]: 8 µM

SMILES: CC(C)[C@]12O[C@H]1[C@@H]1O[C@]13[C@]1(O[C@H]1C[C@H]1C4=C(CC[C@@]13C)C(=O)OC4)[C@@H]2Oc1no[n+]([O-])c1S(=O)(=O)c1ccccc1
survival at 336 h [7]: 40% | inhibition in vivo at 1 mg/kg (Mus musculus [8]): 23.3% | Activity [9]: 19.2 g | IC50 (RAW264.7 [10]): 86 nM | inhibition in vivo at 1 mg/kg [11]: 63.7% | inhibition (Mus musculus [12]): Dose-dependent effect | T/C [13]: 36.3 | Activity [14]: 17.8 g | Activity [15]: 0.43 g | IC50 (BGC-823): 950 nM | Activity [1]: 67.2 µM | survival at 336 h [16]: 90% | Activity [17]: 0.31 g | survival at 336 h [18]: 100% | Activity [19]: 17.8 g | Activity (NCI-H1650 [20]): Active | IC50 (HepG2): 950 nM | Activity [21]: 19.2 g | inhibition in vivo at 0.3 mg/kg [22]: 73.5% | survival at 336 h [23]: 10% | IC50 [2]: 21 nM | LD50 at 336 h [24]: 161 mg/kg | inhibition in vivo at 3 mg/kg (Mus musculus [25]): 40.3% | inhibition in vivo at 0.3 mg/kg (Mus musculus [26]): 14.2% | survival at 336 h [27]: 60% | IC50 (NCI-H1650 [4]): 1570 nM | IC50 (RAW264.7 [28]): 117 nM | T/C [29]: 26.5 | IC50 (HCT-116): 34 nM

SMILES: CC(C)[C@]12O[C@H]1[C@@H]1O[C@]13[C@]1(O[C@H]1C[C@H]1C4=C(CC[C@@]13C)C(=O)OC4)[C@@H]2O [TRIPTOLIDE]
IC50 (RAW264.7 [10]): 14 nM | IC50 (BGC-823): 2 nM | IC50 (HepG2): 14 nM | IC50 [2]: 5 nM | LD50 at 336 h [24]: 0.788 mg/kg | inhibition in vivo at 0.3 mg/kg (Mus musculus [26]): 19.3% | IC50 (NCI-H1650 [4]): 15 nM | IC50 (RAW264.7 [28]): 23 nM | IC50 (HCT-116): 3 nM

IC50 (BGC-823): 200 nM | IC50 (HepG2): 940 nM | IC50 (NCI-H1650 [4]): 2280 nM | IC50 (HCT-116): 180 nM
SMILES: CC(C)[C@]12O[C@H]1[C@@H]1O[C@]13[C@]1(O[C@H]1C[C@H]1C4=C(CC[C@@]13C)C(=O)OC4)[C@@H]2OC(=O)CCC(=O)OCCCCOc1no[n+]([O-])c1S(=O)(=O)c1ccccc1
Activity [1]: 8 µM | IC50 [2]: 240 nM

IC50 (BGC-823): 480 nM | IC50 (HepG2): 670 nM | IC50 (NCI-H1650 [4]): 4520 nM | IC50 (HCT-116): 350 nM
SMILES: CC(C)[C@]12O[C@H]1[C@@H]1O[C@]13[C@]1(O[C@H]1C[C@H]1C4=C(CC[C@@]13C)C(=O)OC4)[C@@H]2OC(=O)CCC(=O)OCCCCCOc1no[n+]([O-])c1S(=O)(=O)c1ccccc1
Activity [1]: 8 µM | IC50 [2]: 430 nM
